Assay results as given in patent US20240335382A1, “NANO- OR MICRO-EMULSION COMPOSITIONS AND METHODS OF USE THEREOF” (Nutraceutical Wellness, Inc., priority 2021, published 2024).

Test system: skin of human subjects
Experiment: Acute primary skin patch test, single 48-hour application
Format: in vivo
Conditions: positive control, 55 subjects completing study
Description: To determine the primary (acute) irritation potential of a test material after a single application to the skin of human subjects for 48 hours.
Test materials to be tested under occlusive conditions were placed on an 8-millimeter aluminum Finn Chamber® (Epitest Ltd. Oy, Tuusula, Finland) supported on Scanpor® Tape (Norgesplaster A/S, Kristiansand, Norway) or an 8-millimeter filter paper coated aluminum Finn Chamber® AQUA supported on a thin flexible transparent polyurethane rectangular film coated on one side with a medical grade acrylic adhesive, consistent with adhesive used in state-of-the-art hypoallergenic surgical tapes or a 7 mm IQ-ULTRA® closed cell system which is made of additive-free polyethylene plastic foam with a filter paper incorporated (It is supplied in units of 10 chambers on a hypoallergenic non woven adhesive tape; the width of the tape is 52 mm and the length is 118 mm) or other equivalents.
Test materials to be tested under semi-occlusive conditions were placed on a test strip with a Rayon/Polypropylene pad or on a 7.5 mm filter paper disc affixed to a strip of hypoallergenic tape (Johnson & Johnson 1 inch First Aid Cloth Tape). […]
Trained skin grading laboratory personnel removed the patch and evaluated the test sites.
In the event of an adverse reaction, the area of erythema and edema is measured. […]

In the case of `CCCCCCCCCCCCOS(=O)(=O)[O-].[Na+]` [2.0% Sodium Lauryl Sulfate Solution, Sodium Lauryl Sulfate], the “subjects with a Grade 1 reaction” value is reported as 16 subjects.
